Consider two sequences from patent publication US20160340659A1, “ACTIN BINDING PEPTIDES AND COMPOSITIONS COMPRISING SAME FOR INHIBITING ANGIOGENESIS AND TREATING MEDICAL CONDITIONS ASSOCIATED WITH SAME” (YISSUM RESEARCH AND DEVELOPMENT COMPANY OF THE HEBREW …, priority 2014, published 2016).

The target in one assay is actin (Oryctolagus cuniculus, UniProt P68135). The assay is described as follows: Surface plasmon resonance (BIAcore) of actin binding. To be noted: actin on CM5 chip, 25° C. The method, then:
SPR was performed on a BIAcore 3000 instrument (BIAcore, Uppsala, Sweden). Actin was diluted in 100 mM CH3COONa pH 4.6 to a final concentration of 20 μg/ml (200 μl total) resulting in ˜1 ng immobilized actin on a CM5 BIAcore sensor chip (GE Healthcare Bio-Sciences AB) using the standard BIAcore amine coupling chemistry protocol. The CM5 chip allows four separate flow cells to be operated in the BIAcore 3000 instrument used in these experiments. Coupling is achieved by activating the surface of the sensor chips with equal volumes of 50 mM N-hydroxysuccimide (NHS)/200 mM Nethyl-N-(3-[…])-carboiimide (EDC) (BIAcore, AB, Uppsala, Sweden) to form activated carboxyl groups. An actin solution […] was run over the chip for 5 min at a rate of 10 μl/min, allowing the amine groups on the protein to react with the activated esters. In the final stage of immobilization, the surface was blocked by 1M ethanol amine, pH 8.0. The binding assay was performed by injecting the hRNASET2, trT2-49, trT2-49m or peptides solutions in running buffer (HBS—10 mM Hepes, 150 mM Sodium Chloride, 3 mM EDTA, 0.005% Polysorbate 20) at 5 different concentrations at a flow rate of 10 μl/min at 25° C. Injections were performed simultaneously over all four channels and blank surface (a plain dextran matrix, channel 1) was used as control. The net signal was obtained by subtracting the blank signal from the signal of the immobilized surface. The association phase for protein or peptides binding to actin was followed for 4 min, and dissociation phases were monitored for 3 min. Surface regeneration between consecutive binding cycles included a 1 min injection of 1 mM NaOH. The response was monitored as a function of time (sensorgram) at 25° C. Multi-concentration data were globally fit using BIA evaluation 3.2 software.
The strength of a two molecule interaction is characterized by the equilibrium dissociation (binding) constant KD=[P][L]/[PL], where [P] is the concentration of free protein (or peptide), [L] the concentration of ligand and [PL] the concentration of the complex. […]
Background: In SPR one partner is held on a chip, and binding of the other changes the refractive index at the surface.

Assay [1] deals with Super metastatic A375SM cells. The experiment in a line: A375SM xenograft tumor model in athymic nude mice. The class given is in vivo, mouse. To be noted: for Tumor Weight: excised tumors at end. Here is the method:
Female Hds-athymic nude mice (Harlan, Rehovot, Israel) were housed in laminar flow cabinets under specific pathogen-free conditions. Experiments were performed on mice at 7-8 weeks of age. The Animals were maintained in facilities approved by the Ethics Committee for Animal Experimentation, The Israeli Ministry of Health.
Subcutaneous tumors were produced by injecting 2.5×10^5 Super metastatic A375SM cells (single-cell suspensions, >95% viability by a trypan blue exclusion test) in 0.2 ml of Hanks' buffered salt solution into the left flank of each mouse. Tumor growth was recorded three times weekly with a caliper and calculated as a×b^2/2 cm^3 (a, long diameter; b, short diameter). Treatments commenced when tumors arrived to about 100 mm^3 volumes, as follows (iv=intravenous; it=intra-tumor, direct injection, q3×6=three times per week for six weeks, […]):
Each group comprised 10 mice. At the end of experiment, tumors were excised, weighed, and prepared for histopathological examination.
Sections from the excised tumors were examined for athological changes, using Hematoxylin-Eosin staining (nuclei stain blue) and FragEL™ TdT DNA Fragmentation Detection stain (Calbiochem, EMD Millipore, MA) for visualizing apoptotic nuclei.

[2] abbreviates: 2.5 mg/kg intratumoral, three times per week.
Where [3] appears, read: 2.5 mg/kg iv, three times per week.
Where [4] appears, read: 5 mg/kg iv, three times per week.

Marks after values point to notes of the source that are not given here. Where no end group is shown, it is not given here.

“ALNSQKKYFGRSLELYRELDLNSVLLKLGIKPSINYYQVADFKDALARVYGVIPKIQ [SEQ ID NO: 60]”: the kon at actin (read-out: Ka × 10^3) came to 1060 M⁻¹ s⁻¹.
On to “KKYFGRSLELYRELDLNSVLLKLGIK [SEQ ID NO: 57, 26-amino acid peptide representing amino acids 108-133 of RNASET2]”, for which, on actin, the “Ka × 10^3” value is on record as 3.32 ×10^3 1/Ms. For the same sequence, the “tumor volume (tumor growth)” value in assay [1] (2.5 mg/kg intra-tumor, three times per week, vs PBS control) is “Increasing inhibition of tumor growth”. In addition, the “tumor apoptosis (FragEL stain of tumor sections)” value in assay [1] (setting [2]) is recorded as “abundant apoptosis”; in assay [1] (2.5 mg/kg iv, daily), “heightened apoptosis”; in assay [1] (setting [3]), “abundant apoptotic cells”; in assay [1] (setting [4]), “an increase in apoptotic rate”; in assay [1] (7.5 mg/kg iv, three times per week) it was “an increase in apoptotic rate”. Further, the “tumor vascular structures (H&E sections)” value is “tumor cells can be seen accumulating towards the blood vessels” in assay [1] (setting [2]); “significant disruption of tumor histology and vascular structures” in assay [1] (2.5 mg/kg iv, daily); “visible disruption of the endothelial structure” in assay [1] (setting [3]); “only partial disruption of the endothelial cell structures” in assay [1] (setting [4]); “A small, if any effect” in assay [1] (7.5 mg/kg iv, three times per week, relative to PBS controls). Moreover, the “tumor volume (tumor development)” value in assay [1] (2.5 mg/kg iv, daily for six weeks, vs PBS control) is reported as “increased the rate of tumor development”; in assay [1] (2.5 mg/kg iv, three times per week for six weeks, vs PBS control), “trend of increasing inhibition of tumor development”. The “Tumor Weight” value is given as 3469 ± 648^a in assay [1] (2.5 mg/kg q7x6 iv), 1798 ± 385^b in assay [1] (5 mg/kg q3x6 iv) and 1471 ± 418^b in assay [1] (7.5 mg/kg q3x6 iv). Also, the tumor growth result in assay [1] (5 mg/kg iv, three times per week, vs PBS control) is “no visible significant effect on tumor growth”; in assay [1] (7.5 mg/kg iv, three times per week, vs PBS control) it was “no visible significant effect on tumor growth”.
